# From PubChem BioAssay (NCI)
#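 In this assay, cells in 96-well plates receive the compound at five concentrations for 48 hours. Endpoints are linearly interpolated between the surrounding concentrations. At the TGI there is no net growth.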
# What was measured:
# Test in all cases: NCI-60 cell line screen, 48 h
# [1] = test system: NCI-H226 lung
# [2] = test system: SNB-75 CNS
# [3] = test system: K-562 leukemia
# [4] = test system: IGROV1 ovarian
# [5] = test system: UACC-257 melanoma
# [6] = test system: ACHN renal
# [7] = test system: NCI-H522 lung
# [8] = test system: DU-145 prostate
# [9] = test system: COLO 205 colon
# [10] = test system: HCT-15 colon
SMILES,TGI [1],TGI [2],TGI [3],TGI [4],TGI [5],TGI [6],TGI [7],TGI [8],TGI [9],TGI [10]
CCOC(=O)CN1C(=O)c2c(c(C)n(-c3ccccc3)c2C)C1=O,> 100 µM,> 100 µM,> 100 µM,> 100 µM,> 100 µM,> 100 µM,> 100 µM,> 100 µM,> 100 µM,> 100 µM
N#Cc1c(N2CCCC2)nsc1NCc1ccccc1,> 100 µM,> 100 µM,> 100 µM,> 100 µM,> 100 µM,> 100 µM,> 100 µM,> 100 µM,> 100 µM,> 100 µM
NC(=O)c1nnc2ccc(F)cc2c1N,73.5 µM,> 100 µM,> 100 µM,> 100 µM,> 100 µM,> 100 µM,> 100 µM,> 100 µM,> 100 µM,> 100 µM
Cc1ccc(-c2nc(C)c(C(=O)Nc3ccc(Cl)cc3)s2)cc1,48.5 µM,28.3 µM,> 100 µM,82.4 µM,> 100 µM,42 µM,> 100 µM,> 100 µM,> 100 µM,> 100 µM
CCOC(=O)c1c2c3c(cccc3[nH]c1=O)Sc1ncccc1-2,66.5 µM,> 100 µM,> 100 µM,61 µM,> 100 µM,> 100 µM,83.8 µM,> 100 µM,> 100 µM,> 100 µM
C=CCN1CCC(OC(=O)C(O)(C#CC)C2CCCC2)CC1 (stereo not given),> 100 µM,> 100 µM,> 100 µM,> 100 µM,> 100 µM,> 100 µM,> 100 µM,> 100 µM,> 100 µM,> 100 µM
